Entries after “also recorded” stand apart in the source; their conditions may differ. Read-outs that look alike come from different tables or passages of the source. Positions of bridges follow the written chain, without caps; N, C: chain ends. Residues, ends and D or L forms follow the SMILES beside them.
Tests used:
[1] = solubility in water and octanol; assay type: physicochemical
stability in pH 7 water = assay type: physicochemical; details: n=3, Figure S2
[2] = tested on: primary ovarian cancer cells; details: High dose 5×10^-3 g/L, 48 h
Method: We utilized cDNA microarrays to observe the effect of ACFP on gene expression in primary ovarian cancer cells. Cells were treated with 0 (the vehicle group, as control), 5 × 10^6 g/L and 5 × 10^3 g/L ACFP, respectively, and cultured for 48 h at 37 °C in 5 % CO2. Cells were later digested and collected for total RNA extraction using Trizol. The RNA concentrations and purities were detected with a spectrophotometer. The experiments were performed in duplicate on a single total RNA preparation from the cells. Signal values were presented as the mean value of two replicate experiments. RNA samples were used to generate human whole genome expression profiling microarray (Yeli Bioscience Co., Ltd.; Shanghai, China). RNA was subsequently converted into digoxigenin-labeled complementary RNA and hybridized to a human genome microarray system (Human OneArray Microarray, from Phalanx Biotech Group, Taiwan). The chips were scanned by a GeeDom® LuxScan 10 K microarray scanner. LuxScan3.0 software was used to extract probe fluorescence signals and analyze images. Finally, the original data were processed by normalizing.

CC[C@H](C)[C@@H]1NC(=O)[C@H](CO)NC(=O)[C@@H]2CCCN2C(=O)[C@H](C)NC(=O)CNC(=O)[C@H](CC(C)C)NC(=O)[C@H](CCCCN)NC(=O)[C@H](CCCCN)NC(=O)[C@H](CCSC)NC(=O)[C@H](CCCNC(=N)N)NC(=O)[C@H](Cc2c[nH]c3ccccc23)NC(=O)[C@H](CCC(N)=O)NC(=O)[C@H](Cc2c[nH]c3ccccc23)NC(=O)[C@H](CCCNC(=N)N)NC(=O)[C@H](CCCNC(=N)N)NC(=O)[C@@H](NC(=O)[C@H](CCCCN)NC(=O)[C@@H](N)Cc2ccccc2)CSSC[C@@H](C(=O)N[C@H](C(=O)N[C@@H](CCCNC(=N)N)C(=O)N[C@@H](CCCNC(=N)N)C(=O)N[C@@H](C)C(=O)N[C@@H](Cc2ccccc2)C(=O)NCC(=O)NCC(=O)NCC(=O)NCC(=O)N[C@@H](CO)C(=O)N2CCC[C@H]2C(=O)NCC(=O)N2CCC[C@H]2C(=O)N[C@H](C(=O)N2CCC[C@H]2C(=O)N[C@@H](CC(N)=O)C(=O)O)[C@@H](C)CC)C(C)C)NC(=O)[C@H]([C@@H](C)O)NC1=O [ACFP] (H-FKCRRWQWRMKKLGAPSITCVRRAFGGGGSPGPIPN-OH; disulfide 3-20; N-terminus and C-terminus assumed)
solubility in fat (octanol) [1]: slightly soluble
solubility in water [1]: easily dissolve
stability (stability in pH 7 water): very stable; also recorded: good stability
GTF2IP1 Ratio (ACFP/control) ([2]; NM-002970): 0.24
IGFBP5 Ratio (ACFP/control) ([2]; NM-003488): 0.23
MYLK Ratio (ACFP/control) ([2]; NM-004638): 0.23
NKX3-1 Ratio (ACFP/control) ([2]; NM-004824): 3.11
PLA2G5 Ratio (ACFP/control) ([2]; NM-005322): 0.46
POLH Ratio (ACFP/control) ([2]; NM-005429): 0.12
PSMA1 Ratio (ACFP/control) ([2]; NM-005682): 0.49
STAT5B Ratio (ACFP/control) ([2]; NM-006777): 2.03
STAT6 Ratio (ACFP/control) ([2]; NM-006778): 10.8
UPP1 Ratio (ACFP/control) ([2]; NM-007378): 0.42
TNFSF18 Ratio (ACFP/control) ([2]; NM-008995): 0.41
MAP4K4 Ratio (ACFP/control) ([2]; NM-009448): 0.41
BTF/BCLAF1 Ratio (ACFP/control) ([2]; NM-009774): 2.79
TMEFF1 Ratio (ACFP/control) ([2]; NM-016522): 7.91
RAB18 Ratio (ACFP/control) ([2]; NM-022931): 0.25
TCF/LEF1 Ratio (ACFP/control) ([2]; NM-051176): 0.35
PINX1 Ratio (ACFP/control) ([2]; NM-054984): 0.47
RINT-1 Ratio (ACFP/control) ([2]; NM-060561): 0.17
C17orf37 Ratio (ACFP/control) ([2]; NM-084299): 0.38
ZNF512 Ratio (ACFP/control) ([2]; NM-084450): 0.47
AKT1 Ratio (ACFP/control) ([2]; NM_000207): 0.27
ARHE Ratio (ACFP/control) ([2]; NM_000390): 3.39
BAG1 Ratio (ACFP/control) ([2]; NM_000573): 0.33
BAX Ratio (ACFP/control) ([2]; NM_000581): 6.35
BCL-xl Ratio (ACFP/control) ([2]; NM_000598): 0.19
C1QG Ratio (ACFP/control) ([2]; NM_000714): 2.68
CASP3 Ratio (ACFP/control) ([2]; NM_000836): 5.34
CCNB1 Ratio (ACFP/control) ([2]; NM_000891, cyclinB1): 0.21
TNFRSF8 Ratio (ACFP/control) ([2]; NM_000943, first entry): 3.22
TNFRSF8 Ratio (ACFP/control) ([2]; NM_000943, second entry): 3.22
CDC25C Ratio (ACFP/control) ([2]; NM_000995): 0.32
CDKN1A Ratio (ACFP/control) ([2]; NM_001026): 6.58
CDKN1A/p21 Ratio (ACFP/control) ([2]; NM_001026, second entry): 3.58
CKS2 Ratio (ACFP/control) ([2]; NM_001164): 8.95
DVL1 Ratio (ACFP/control) ([2]; NM_001855): 2.46
GRK4 Ratio (ACFP/control) ([2]; NM_002868): 0.37
GRK5 Ratio (ACFP/control) ([2]; NM_002869): 0.47
GRK6 Ratio (ACFP/control) ([2]; NM_002870): 0.26
GSTM4 Ratio (ACFP/control) ([2]; NM_002948): 2.72
GSTM5 Ratio (ACFP/control) ([2]; NM_002949): 4.84
IRF7 Ratio (ACFP/control) ([2]; NM_003665): 4.50
ITGA5 Ratio (ACFP/control) ([2]; NM_003678): 0.43
PKIA Ratio (ACFP/control) ([2]; NM_005569): 2.74
MAPK3/ERK1 Ratio (ACFP/control) ([2]; NM_005595): 0.35
MAPK8/JNK1 Ratio (ACFP/control) ([2]; NM_005599): 2.74
MAPK13/p38 delta Ratio (ACFP/control) ([2]; NM_005603): 3.04
PSMB8 Ratio (ACFP/control) ([2]; NM_005696): 3.24
TNFRSF1A Ratio (ACFP/control) ([2]; NM_007132, first entry): 2.15
TNFRSF1A Ratio (ACFP/control) ([2]; NM_007132, second entry): 2.08
ZNF12 Ratio (ACFP/control) ([2]; NM_007559): 3.66
BAT5 Ratio (ACFP/control) ([2]; NM_007920): 7.48
PABPN1 Ratio (ACFP/control) ([2]; NM_008106): 9.8
TNFRSF10B Ratio (ACFP/control) ([2]; NM_008795): 4.85
STK17B Ratio (ACFP/control) ([2]; NM_009262): 2.97
TRAF4 Ratio (ACFP/control) ([2]; NM_009618): 3.62
USP34 Ratio (ACFP/control) ([2]; NM_009736): 4.52
GOLGA5 Ratio (ACFP/control) ([2]; NM_009950): 2.95
SUI1 Ratio (ACFP/control) ([2]; NM_010209): 9.85
SPINT2 Ratio (ACFP/control) ([2]; NM_010653): 10.25
PIK3R5 Ratio (ACFP/control) ([2]; NM_023533): 0.44
CARD10 Ratio (ACFP/control) ([2]; NM_029775): 4.32
FLJ39616 Ratio (ACFP/control) ([2]; NM_051275): 2.53
GNG12 Ratio (ACFP/control) ([2]; NM_055970): 8.30
BCORL1 Ratio (ACFP/control) ([2]; NM_063035): 0.25
CARD14 Ratio (ACFP/control) ([2]; NM_079092): 3.06
BCL2L14 Ratio (ACFP/control) ([2]; NM_079370): 2.57
FLJ13848 Ratio (ACFP/control) ([2]; NM_079829): 9.45
SNARK Ratio (ACFP/control) ([2]; NM_081788): 3.11
C1QTNF6 Ratio (ACFP/control) ([2]; NM_114904, first entry): 6.26

— PMC4806491, “The milk-derived fusion peptide, ACFP, suppresses the growth of primary human ovarian cancer cells by regulating apoptotic gene expression and signaling pathways” (BMC Cancer, 2016)
